Conditions in one series: not given
As for `O=C(SSC(=O)c1ccccc1)c1ccccc1`, the melting point (in general, the temperature of the solid-liquid transition) was found to be 134 °C. As to `COS(C)(=O)=O`, the boiling point (as a rule, the temperature of boiling at a given pressure) came to 203 °C and the melting point is 20 °C. As for `O=C(O)/C=C/c1c[nH]cn1`, the melting point was determined as 225 °C.

In turn, `Clc1ccc2cccc(Cl)c2c1` registered a boiling point of 286 °C and a melting point of 63.5 °C. Consider `O=C(O)CN(CC(=O)O)CC(=O)O`, for which the ready biodegradability entry is “not readily biodegradable”.

`O=C(O)COc1nc(Cl)c(Cl)cc1Cl` yielded a log10 Koc (L/kg) of 1.67, a log10 vapour pressure (mmHg) of -5.9 and a melting point of 149 °C.

Compound `C[C@]12CC[C@H]3[C@@H](CCC4=CC(=O)CC[C@@H]43)[C@@H]1CC[C@@H]2OC(=O)CCc1ccccc1` displayed a melting point of 95.5 °C.

For the compound `Cc1ccc(C)cc1`, the boiling point was 138 °C, the log10 Henry constant (atm·m³/mol) is -2.16, the log10 Koa was 3.79 and the log10 Koc (L/kg) is 2.41. The log10 biodegradation half-life (days) was determined as 0.954, the log10 vapour pressure (mmHg) turned out to be 0.947, the melting point was determined as 13.2 °C and the ready biodegradability entry was “readily biodegradable”. Compound `C=CCC1(c2ccccc2)C(=O)NC(=O)NC1=O` gave a melting point of 156 °C. In turn, `CC(=O)N=c1sc(S(N)(=O)=O)nn1C` yielded a melting point of 214 °C. Regarding `C[Si](C)(F)c1ccccc1`, the log10 vapour pressure (mmHg) stood at 0.463. Regarding `C=COCCC(C)C`, the boiling point was 112 °C. With `C=CP(=O)(O)O`, the melting point was found to be 43 °C. `C[C@@H]1CCCCN1` showed a boiling point of 120 °C and a log10 vapour pressure (mmHg) of 1.29.

In turn, `OCC1c2ccccc2-c2ccccc21` displayed a melting point of 106 °C.

In turn, `O=C1CCC(=O)N1I` returned a melting point of 204 °C.

For `CCC1=CCCC1`, the boiling point worked out at 106 °C and the melting point is -118 °C. The corresponding values for `NC1CCCCCCC1` are 190 °C and -48 °C. The corresponding values for `C=CC(Cl)(Cl)Cl` are 114 °C and -30 °C. Take `CC(=O)CO`: the boiling point came out at 146 °C, the melting point is -17 °C and the ready biodegradability entry was “readily biodegradable”. `CCCCOc1ccc(/N=N/c2ccc(N)nc2N)cn1` gave a melting point of 129 °C. On the same count and under the same terms, with `O=[N+]([O-])c1cncn1CCN1CCOCC1` the figure was 110 °C. `C=Cc1cc(C)ccc1C` returned a log10 vapour pressure (mmHg) of 0 and a melting point of -35 °C. The compound `CC(C)NCCO` had a boiling point of 173 °C and a melting point of 128 °C. As for `FC(F)(F)C(F)(F)C(Cl)Cl`, the boiling point amounted to 51.1 °C, the log10 Henry constant (atm·m³/mol) is -0.299, the log10 vapour pressure (mmHg) came to 2.38 and the melting point is -94 °C. In turn, `CCS(=O)(=O)CCO` yielded a melting point of 46 °C. On to `c1csc(-c2cccs2)c1`, for which the boiling point was found to be 260 °C and the melting point stood at 33 °C. The corresponding values for `CC(=O)OC(OC(C)=O)c1ccco1` are 220 °C and 53.3 °C. Turning to `CCCCCCCCc1ccc(O)cc1`, the ready biodegradability entry was “not readily biodegradable”. As to `c1ccc2ncccc2c1`, the boiling point was 237 °C, the log10 Koc (L/kg) came to 3.1, the log10 vapour pressure (mmHg) was -1.22 and the melting point was -14.8 °C. For the same compound, the ready biodegradability entry is reported as “readily biodegradable”. Take `c1ccc(C2=NNCC2)cc1`: the melting point is 45.8 °C. In turn, `Clc1ccc2ccccc2c1Cl` displayed a boiling point of 296 °C, a log10 Koa of 6.89, a log10 vapour pressure (mmHg) of -2.7 and a melting point of 36 °C. The compound `CCCCCCCCCCCCCCCCCCCC1CCCCC1` had a boiling point of 420 °C and a melting point of 45 °C. For the compound `ClC1=C(Cl)C2(Cl)C3C4C=CC(C4)C3C1(Cl)C2(Cl)Cl` (stereo unspecified), the ready biodegradability result was “not readily biodegradable”. In turn, `COc1ccc([C@@H]2CC(=O)c3c(O)cc(O)cc3O2)cc1O` registered a melting point of 228 °C.

For the compound `C#CC(C)(C)NC(=O)c1ccc(Cl)cc1`, the log10 Koc (L/kg) is 1.9. Regarding `NS(=O)(=O)c1ccc(SCCO)c([N+](=O)[O-])c1`, the melting point is 151 °C. The same measure, in the same setting: in the case of `COc1cc(NCc2ccc3nc(N)nc(N)c3c2C)cc(OC)c1OC` it was 216 °C.

Compound `NC1CC1` showed a boiling point of 50.5 °C and a melting point of -35.4 °C. As for `O=C(C[N+](=O)[O-])Nc1ccccc1`, the melting point was determined as 94 °C. In the case of `COc1ccc2ncccc2c1`, the boiling point was determined as 306 °C and the melting point is 26.5 °C. As for `O=C(c1ccccc1)c1ccc(-c2ccccc2)cc1`, the boiling point stood at 420 °C and the melting point was found to be 100 °C.

`FC(F)(F)C(F)(F)F` displayed a boiling point of -78.1 °C, a log10 Henry constant (atm·m³/mol) of 1.31, a log10 vapour pressure (mmHg) of 4.4 and a melting point of -101 °C. Turning to `CC(CNC(=O)c1ccccc1)C(=O)OCC(=O)[C@@]12OC(C)(C)O[C@@H]1C[C@H]1[C@@H]3CCC4=CC(=O)C=C[C@]4(C)[C@@]3(F)[C@@H](O)C[C@@]12C` (stereo partly specified), the melting point turned out to be 205 °C. `CCCCCCCCOC(=O)CCCCC(=O)OCCCCCCCC`: the log10 Henry constant (atm·m³/mol) was -6.36, the log10 vapour pressure (mmHg) is -6.07 and the melting point was -70 °C. Consider `Cn1ccc(=O)n(C)c1=O`, for which the log10 vapour pressure (mmHg) is -2.26 and the melting point came out at 120 °C.

Take `C#CCI`: the boiling point is 115 °C. `CC1=CCC(C(=O)O)C1(C)C` (stereo unspecified) displayed a boiling point of 242 °C and a melting point of 40.5 °C.

As for `Cc1cccc(OCC(O)CNC(C)C)c1` (stereo unspecified), the melting point came out at 76 °C.

Compound `Cc1ccc2c(Cl)cc(Cl)c(O)c2n1` had a melting point of 114 °C. `O=c1cc(CN2CCOCC2)c2cc(O)c(O)cc2o1` registered a melting point of 232 °C. `O=C1c2ccccc2-c2ccccc21` had a boiling point of 342 °C and a melting point of 84 °C.

With `CC#Cc1ccccc1`, the boiling point came out at 183 °C.

As to `CCCCC(CC)CN1C(=O)C2C(C1=O)C1(C(C)C)C=CC2(C)CC1` (stereo unspecified), the ready biodegradability result is on record as “not readily biodegradable”.

The compound `Clc1cc2oc3ccc(Cl)c(Cl)c3c2c(Cl)c1Cl` returned a log10 Koa of 10.5.

`CN(C)CCCN1c2ccccc2CCc2ccc(Cl)cc21` yielded a melting point of 190 °C. With `CCCCCCCC(=O)OCCCC`, the boiling point amounted to 240 °C and the melting point was -42.9 °C. `C/C=C(/C)C(C)C` yielded a boiling point of 89.9 °C and a melting point of -121 °C. The corresponding values for `Cc1cc(C)c(Br)cc1C` are 234 °C and 73 °C.

On to `FC(F)=C(F)OC(F)(F)C(F)(F)C(F)(F)F`, for which the ready biodegradability entry is given as “not readily biodegradable”.

Take `CCCC(=O)c1ccc(C)cc1`: the boiling point was 252 °C and the melting point worked out at 12 °C. Compound `CC(C)(C)C1CCC(O)CC1` (stereo unspecified) showed a log10 vapour pressure (mmHg) of -1.15 and a melting point of 66 °C. In turn, `Cc1ccnc(Cl)c1` yielded a boiling point of 192 °C and a melting point of 115 °C. As for `c1ccc2c(c1)-c1cccc3cccc-2c13`, the boiling point turned out to be 384 °C, the log10 Henry constant (atm·m³/mol) was -5.05, the log10 Koa was 8.88 and the log10 Koc (L/kg) was 4.8. The log10 biodegradation half-life (days) was 2.17, the log10 vapour pressure (mmHg) was -5.04 and the ready biodegradability result was “not readily biodegradable”. Consider `CCCCCCCCC=CCCCCCCCC(=O)OCCS(=O)(=O)[O][Na]`, for which the ready biodegradability result is listed as “readily biodegradable”. On to `CCC(C)O` (stereo unspecified), for which the log10 Henry constant (atm·m³/mol) was -5.04, the log10 Koa amounted to 3.85, the log10 vapour pressure (mmHg) is 1.26 and the ready biodegradability entry is recorded as “readily biodegradable”. For `CC(CN1c2ccccc2Sc2ccccc21)N(C)C.Cl` (stereo unspecified), the melting point came to 228 °C. With `CC(C)OC(N)=O`, the boiling point was 183 °C and the melting point came to 93 °C. As for `CC(C)CC(C)C`, the boiling point stood at 80.4 °C, the log10 biodegradation half-life (days) is 1.68, the log10 vapour pressure (mmHg) is 1.9 and the melting point was -120 °C. The compound `C=C(CC)CCCC` gave a boiling point of 120 °C and a log10 vapour pressure (mmHg) of 1.29.

Still in this series, the particulars now being: fish.
As to `Cc1ccc(C)cc1`, the log10 BCF was found to be 1.17. Take `c1ccc2ncccc2c1`: the log10 BCF stood at 0.58 and the log10 biotransformation half-life (days) is -1.33.

`CCCCC(CC)CN1C(=O)C2C(C1=O)C1(C(C)C)C=CC2(C)CC1` (stereo unspecified): the log10 BCF was 2.97 and the log10 biotransformation half-life (days) was 0.31. The compound `CC(C)c1ccc2c(c1)CC[C@H]1[C@](C)(C(=O)O)CCC[C@]21C` displayed a log10 BCF of 2.12. Regarding `c1ccc2c(c1)-c1cccc3cccc-2c13`, the log10 BCF is 3.56 and the log10 biotransformation half-life (days) is -0.02.
